Key:
[1] = system: human cervical tumor cell line HeLa (ATCC CCL-2); test: SAC-Formation - Paclitaxel-Induced Assay; type: cell-based; settings: Homo sapiens, HeLa, 24 h, HeLa cells, paclitaxel 0.05 μM, test range 0.005 μM-20 μM, read-out: IC50 [mol/l] SAC-Formation - Paclitaxel-Induced Assay
Procedure, shortened: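 HeLa cells incubated overnight at 37° C, then given paclitaxel (0.05 μM final) plus test compound (0.005–20 μM, 0.5% DMSO) together for 24 h at 37° C. Fixed cells stained for phospho-histone H3 Ser10 (mitotic cells) and Hoechst 33342 (cell count); imaging-derived mitotic index fitted by four-parameter Hill equation.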

CDK2/CycE = target: T1, CDK2/CycE (Homo sapiens, UniProt P24941); test: CDK2/CycE kinase assay (TR-FRET); type: biochemical; settings: avg, read-out: CDK2 avg (IC50 [mol/l])
T1 construct: GST; purchased ProQinase GmbH (Freiburg, Germany); host or cells: insect cells (Sf9)
Procedure, shortened: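 GST-tagged human CDK2 and CycE from Sf9 cells, preincubated 15 min with compound, then 25 min at 22° C. with 10 μM ATP and 0.75 μM biotinylated Rb-derived peptide (final). Phospho-substrate read by TR-FRET (anti-pRB pSer807/pSer811, Eu anti-mouse IgG, streptavidin-XL665), 665/620 nm ratio, normalised to no-inhibitor and no-enzyme controls.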

IC50 [1] [nM]	IC50 (CDK2/CycE) [µM]	Structure (SMILES)
300	> 20	Cc1nsc(Nc2cnc(C(F)(F)F)cn2)c1C(=O)Nc1ccc(O[C@@H]2CCCN(CC(F)F)C2)nc1 [Example 385, N-(6-{[(3R)-1-(2,2-difluoroethyl)piperidin-3-yl]oxy}pyridin-3-yl)-3-methyl-5-{[5-(trifluoromethyl)pyrazin-2-yl]amino}-1,2-thiazole-4-carboxamide]
250	> 20	Cc1nsc(Nc2cnc(C(F)(F)F)cn2)c1C(=O)Nc1ccc(CCC2CCN(CC(F)F)CC2)nc1 [Example 356, N-(6-{2-[1-(2,2-difluoroethyl)piperidin-4-yl]ethyl}pyridin-3-yl)-3-methyl-5-{[5-(trifluoromethyl)pyrazin-2-yl]amino}-1,2-thiazole-4-carboxamide]
110	> 20	Cc1nsc(Nc2cnc(C(F)(F)F)cn2)c1C(=O)Nc1ccc(O[C@H]2CCCN(CCC(F)(F)F)C2)nc1 [Example 390, 3-methyl-5-{[5-(trifluoromethyl)pyrazin-2-yl]amino}-N-(6-{[(3S)-1-(3,3,3-trifluoropropyl)piperidin-3-yl]oxy}pyridin-3-yl)-1,2-thiazole-4-carboxamide]
280	≥ 20	Cc1nsc(Nc2cnc(C(F)(F)F)cn2)c1C(=O)Nc1ccc(OCC2CCN(CCF)CC2)nc1 [Example 344, N-(6-{[1-(2-fluoroethyl)piperidin-4-yl]methoxy}pyridin-3-yl)-3-methyl-5-{[5-(trifluoromethyl)pyrazin-2-yl]amino}-1,2-thiazole-4-carboxamide]
520	≥ 20	Cc1nsc(Nc2cnc(C(F)(F)F)cn2)c1C(=O)Nc1ccc(OCCCN(C)CCF)nc1 [Example 352, N-(6-{3-[(2-fluoroethyl)(methyl)amino]propoxy}pyridin-3-yl)-3-methyl-5-{[5-(trifluoromethyl)pyrazin-2-yl]amino}-1,2-thiazole-4-carboxamide]
	> 20	Cc1nsc(Nc2cnc(C(F)(F)F)cn2)c1C(=O)Nc1ccc(F)c(OC[C@H]2CCN(CCC(F)(F)F)C2)c1 [Example 399, N-(4-fluoro-3-{[(3S)-1-(3,3,3-trifluoropropyl)pyrrolidin-3-yl]methoxy}phenyl)-3-methyl-5-{[5-(trifluoromethyl)pyrazin-2-yl]amino}-1,2-thiazole-4-carboxamide]
21	≥ 20	Cc1nsc(Nc2cnc(C(F)(F)F)cn2)c1C(=O)Nc1ccc(OCC2CCN(CC(F)F)CC2)nc1 [Example 345, N-(6-{[1-(2,2-difluoroethyl)piperidin-4-yl]methoxy}pyridin-3-yl)-3-methyl-5-{[5-(trifluoromethyl)pyrazin-2-yl]amino}-1,2-thiazole-4-carboxamide]
56	≥ 20	Cc1nsc(Nc2cnc(C(F)(F)F)cn2)c1C(=O)Nc1ccc(F)c(OCC2CCCN(CC(F)F)C2)c1 (centres unmarked) [Example 334, N-(3-{[1-(2,2-difluoroethyl)piperidin-3-yl]methoxy}-4-fluorophenyl)-3-methyl-5-{[5-(trifluoromethyl)pyrazin-2-yl]amino}-1,2-thiazole-4-carboxamide]
150	≥ 20	Cc1nsc(Nc2cnc(C(F)(F)F)cn2)c1C(=O)Nc1ccc(OCCCN(C)CC(F)F)nc1 [Example 353, N-(6-{3-[(2,2-difluoroethyl)(methyl)amino]propoxy}pyridin-3-yl)-3-methyl-5-{[5-(trifluoromethyl)pyrazin-2-yl]amino}-1,2-thiazole-4-carboxamide]
150	> 20	CCN1CC[C@@H](Oc2ccc(NC(=O)c3c(C)nsc3Nc3cnc(C(F)(F)F)cn3)cn2)[C@H](F)C1 [Example 369, N-(6-{[(3R,4R)-1-ethyl-3-fluoropiperidin-4-yl]oxy}pyridin-3-yl)-3-methyl-5-{[5-(trifluoromethyl)pyrazin-2-yl]amino}-1,2-thiazole-4-carboxamide]
18	> 20	CCCCN1CCC(COc2ccc(NC(=O)c3c(C)nsc3Nc3cnc(C(F)(F)F)cn3)cn2)C(F)(F)C1 (centres unmarked) [Example 396, N-{6-[(1-butyl-3,3-difluoropiperidin-4-yl)methoxy]pyridin-3-yl}-3-methyl-5-{[5-(trifluoromethyl)pyrazin-2-yl]amino}-1,2-thiazole-4-carboxamide]
200	> 20	Cc1nsc(Nc2cnc(C(F)(F)F)cn2)c1C(=O)Nc1ccc(OC[C@@H]2CCCN(CC(F)F)C2)nc1 [Example 375, N-(6-{[(3R)-1-(2,2-difluoroethyl)piperidin-3-yl]methoxy}pyridin-3-yl)-3-methyl-5-{[5-(trifluoromethyl)pyrazin-2-yl]amino}-1,2-thiazole-4-carboxamide]
190	> 20	Cc1nsc(Nc2cnc(C(F)(F)F)cn2)c1C(=O)Nc1ccc(N2CCN(CC(F)(F)F)CC2)cn1 [Example 373, 3-methyl-N-{5-[4-(2,2,2-trifluoroethyl)piperazin-1-yl]pyridin-2-yl}-5-{[5-(trifluoromethyl)pyrazin-2-yl]amino}-1,2-thiazole-4-carboxamide]
520	≥ 20	Cc1nsc(Nc2cnc(C(F)(F)F)cn2)c1C(=O)Nc1ccc(OCCN(C)CCF)nc1 [Example 348, N-(6-{2-[(2-fluoroethyl)(methyl)amino]ethoxy}pyridin-3-yl)-3-methyl-5-{[5-(trifluoromethyl)pyrazin-2-yl]amino}-1,2-thiazole-4-carboxamide]
200	≥ 20	Cc1nsc(Nc2cnc(C(F)(F)F)cn2)c1C(=O)Nc1ccc(OC2CCCN(C(CF)CF)C2)nc1 (centres unmarked) [Example 333, N-(6-{[1-(1,3-difluoropropan-2-yl)piperidin-3-yl]oxy}pyridin-3-yl)-3-methyl-5-{[5-(trifluoromethyl)pyrazin-2-yl]amino}-1,2-thiazole-4-carboxamide]
140	> 20	Cc1nsc(Nc2cnc(C(F)(F)F)cn2)c1C(=O)Nc1ccc(O[C@@H]2CCN(CCC(F)(F)F)C2)nc1 [Example 381, 3-methyl-5-{[5-(trifluoromethyl)pyrazin-2-yl]amino}-N-(6-{[(3R)-1-(3,3,3-trifluoropropyl)pyrrolidin-3-yl]oxy}pyridin-3-yl)-1,2-thiazole-4-carboxamide]
98	> 20	Cc1nsc(Nc2cnc(C(F)(F)F)cn2)c1C(=O)Nc1ccc(O[C@@H]2CCN(CC(F)F)C[C@H]2F)nc1 [Example 366, N-(6-{[(3R,4R)-1-(2,2-difluoroethyl)-3-fluoropiperidin-4-yl]oxy}pyridin-3-yl)-3-methyl-5-{[5-(trifluoromethyl)pyrazin-2-yl]amino}-1,2-thiazole-4-carboxamide]
32	≥ 20	Cc1nsc(Nc2cnc(C(F)(F)F)cn2)c1C(=O)Nc1ccc(OCC2CCN(CC(F)(F)F)CC2)nc1 [Example 346, 3-methyl-N-(6-{[1-(2,2,2-trifluoroethyl)piperidin-4-yl]methoxy}pyridin-3-yl)-5-{[5-(trifluoromethyl)pyrazin-2-yl]amino}-1,2-thiazole-4-carboxamide]
25	≥ 20	Cc1nsc(Nc2cnc(C(F)(F)F)cn2)c1C(=O)Nc1ccc(OC2CCCN(CCC(F)(F)F)C2)nc1 (centres unmarked) [Example 332, 3-methyl-5-{[5-(trifluoromethyl)pyrazin-2-yl]amino}-N-(6-{[1-(3,3,3-trifluoropropyl)piperidin-3-yl]oxy}pyridin-3-yl)-1,2-thiazole-4-carboxamide]
57	≥ 20	Cc1nsc(Nc2cnc(C(F)(F)F)cn2)c1C(=O)Nc1ccc(OCCN(C)CC(F)(F)F)nc1 [Example 350, 3-methyl-N-(6-{2-[methyl(2,2,2-trifluoroethyl)amino]ethoxy}pyridin-3-yl)-5-{[5-(trifluoromethyl)pyrazin-2-yl]amino}-1,2-thiazole-4-carboxamide]
37	> 20	Cc1nsc(Nc2cnc(C(F)(F)F)cn2)c1C(=O)Nc1ccc(O[C@@H]2CCN(CC(F)(F)F)C[C@H]2F)nc1 [Example 367, N-(6-{[(3R,4R)-3-fluoro-1-(2,2,2-trifluoroethyl)piperidin-4-yl]oxy}pyridin-3-yl)-3-methyl-5-{[5-(trifluoromethyl)pyrazin-2-yl]amino}-1,2-thiazole-4-carboxamide]
160	> 20	Cc1nsc(Nc2cnc(C(F)(F)F)cn2)c1C(=O)Nc1ccc(O[C@H]2CCCN(CC(F)(F)F)C2)nc1 [Example 389, 3-methyl-N-(6-{[(3S)-1-(2,2,2-trifluoroethyl)piperidin-3-yl]oxy}pyridin-3-yl)-5-{[5-(trifluoromethyl)pyrazin-2-yl]amino}-1,2-thiazole-4-carboxamide]
20000	≥ 20	Cc1nsc(Nc2ccc(C#N)cn2)c1C(=O)Nc1ccc(OC2CCNCC2)nc1 [Example 28, 5-[(5-Cyanopyridin-2-yl)amino]-3-methyl-N-[6-(piperidin-4-yloxy)pyridin-3-yl]-1,2-thiazole-4-carboxannide]
68	> 20	Cc1nsc(Nc2cnc(C(F)(F)F)cn2)c1C(=O)Nc1ccc(C2CCN(CC(F)(F)F)CC2)nc1 [Example 358, 3-methyl-N-{6-[1-(2,2,2-trifluoroethyl)piperidin-4-yl]pyridin-3-yl}-5-{[5-(trifluoromethyl)pyrazin-2-yl]amino}-1,2-thiazole-4-carboxamide]
